Source: patent US11629155B2, “Small molecule antagonist compound TAC5 series having toll-like receptor 3/7/8/9 inhibitory function” (AJOU UNIVERSITY INDUSTRY-ACADEMIC COOPERATION FOUNDATION, priority 2018, dated 2023)

Experiments:
TLR7/8 = assay: TLR7/8-mediated IL-6 expression in THP-1 cells; assay type: cell-based, human; details: FIG. 4C
Protocol: RAW264.7 cells (ATCC, Manassas, Va., USA), which are mouse macrophages, were cultured in low-glucose DMEM (Thermo Fisher Scientific Inc.) supplemented with 10% FBS, 100 IU/ml penicillin and 100 μg/ml streptomycin in a culture system. Human monocyte THP1 cells were cultured in RPMI 1640 (Thermo Fisher Scientific Inc.) supplemented with 10% FBS, 100 IU/ml penicillin and 100 μg/ml streptomycin and then differentiation thereof into macrophages was induced using 10 nM phorbol 12-myristate 13-acetate (PMA) (Sigma-Aldrich Co. LLC.) for 24 hours. CL075, R848, CpG-ODN and Poly(I:C) were purchased from InvivoGen (San Diego, Calif., USA), and LPS was purchased from Sigma-Aldrich Co. (St. Louis, Mo., USA).
Cytotoxicity in RAW 264.7 cells was tested by treatment with these compounds at a concentration of 12.5 to 50 μM. […] The inhibitory effect of TAC5-a on TLR-mediated signaling was confirmed by measuring TNF-α secretion through ELISA in THP1-derived macrophages. […] In addition, in order to evaluate the antagonistic effect of TAC5-a on endosomal TLR activation, cells were cultured along with this compound in the presence of R848 (TLR7/8) or CL075 (TLR7/8), imiquimod (IMQ; TLR7), TL8 (TLR8), poly(I:C) (TLR3) or CpG ODN (TLR9) (FIGS. 4E, 4F and 4G).

TLR4 = target: T1, TLR4 (Homo sapiens, UniProt O00206+Q9Y6Y9); assay: LPS-induced TNF-α secretion (ELISA) in THP1-derived macrophages; assay type: cell-based; details: 1 to 50 μM, FIG. 4D
T1 construct: endogenous in cells; host or cells: THP1-derived macrophages (PMA-differentiated)

TLR3 = target: T2, TLR3 (Homo sapiens, UniProt O15455); assay: poly(I:C)-induced TNF-α or IL-6 secretion in THP1-derived macrophages; assay type: cell-based; details: dose-dependent manner, FIGS. 4E-4G
T2 construct: endogenous in cells; host or cells: THP1-derived macrophages (PMA-differentiated)
T2 sequence (O15455 24-904): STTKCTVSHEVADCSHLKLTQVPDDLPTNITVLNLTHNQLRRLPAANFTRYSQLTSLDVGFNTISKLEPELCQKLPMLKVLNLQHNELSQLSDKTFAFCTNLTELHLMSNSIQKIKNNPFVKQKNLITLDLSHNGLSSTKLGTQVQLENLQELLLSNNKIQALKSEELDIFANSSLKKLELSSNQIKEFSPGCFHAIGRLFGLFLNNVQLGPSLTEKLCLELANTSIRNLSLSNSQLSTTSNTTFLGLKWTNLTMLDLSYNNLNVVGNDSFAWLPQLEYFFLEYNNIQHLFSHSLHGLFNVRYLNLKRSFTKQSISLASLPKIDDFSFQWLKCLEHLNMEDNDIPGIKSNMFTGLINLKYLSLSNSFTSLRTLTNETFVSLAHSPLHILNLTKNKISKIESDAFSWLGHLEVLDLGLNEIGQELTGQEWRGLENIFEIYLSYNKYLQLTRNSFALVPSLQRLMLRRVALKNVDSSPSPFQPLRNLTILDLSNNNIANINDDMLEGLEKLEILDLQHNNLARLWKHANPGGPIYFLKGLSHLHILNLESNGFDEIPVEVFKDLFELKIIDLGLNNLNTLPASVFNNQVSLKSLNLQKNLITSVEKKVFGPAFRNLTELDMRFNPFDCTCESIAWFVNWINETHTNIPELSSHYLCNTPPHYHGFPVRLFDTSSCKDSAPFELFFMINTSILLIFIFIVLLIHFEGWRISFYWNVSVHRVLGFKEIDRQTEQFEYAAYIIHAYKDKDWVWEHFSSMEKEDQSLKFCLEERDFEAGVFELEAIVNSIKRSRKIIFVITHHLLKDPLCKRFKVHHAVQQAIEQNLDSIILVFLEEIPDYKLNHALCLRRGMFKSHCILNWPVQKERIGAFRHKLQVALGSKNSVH

TLR9 = target: T3, TLR9 (Homo sapiens, UniProt Q9NR96); assay: CpG ODN-induced TNF-α or IL-6 secretion in THP1-derived macrophages; assay type: cell-based; details: dose-dependent manner, FIGS. 4E-4G
T3 construct: endogenous in cells; host or cells: THP1-derived macrophages (PMA-differentiated)
T3 sequence (Q9NR96 26-1032): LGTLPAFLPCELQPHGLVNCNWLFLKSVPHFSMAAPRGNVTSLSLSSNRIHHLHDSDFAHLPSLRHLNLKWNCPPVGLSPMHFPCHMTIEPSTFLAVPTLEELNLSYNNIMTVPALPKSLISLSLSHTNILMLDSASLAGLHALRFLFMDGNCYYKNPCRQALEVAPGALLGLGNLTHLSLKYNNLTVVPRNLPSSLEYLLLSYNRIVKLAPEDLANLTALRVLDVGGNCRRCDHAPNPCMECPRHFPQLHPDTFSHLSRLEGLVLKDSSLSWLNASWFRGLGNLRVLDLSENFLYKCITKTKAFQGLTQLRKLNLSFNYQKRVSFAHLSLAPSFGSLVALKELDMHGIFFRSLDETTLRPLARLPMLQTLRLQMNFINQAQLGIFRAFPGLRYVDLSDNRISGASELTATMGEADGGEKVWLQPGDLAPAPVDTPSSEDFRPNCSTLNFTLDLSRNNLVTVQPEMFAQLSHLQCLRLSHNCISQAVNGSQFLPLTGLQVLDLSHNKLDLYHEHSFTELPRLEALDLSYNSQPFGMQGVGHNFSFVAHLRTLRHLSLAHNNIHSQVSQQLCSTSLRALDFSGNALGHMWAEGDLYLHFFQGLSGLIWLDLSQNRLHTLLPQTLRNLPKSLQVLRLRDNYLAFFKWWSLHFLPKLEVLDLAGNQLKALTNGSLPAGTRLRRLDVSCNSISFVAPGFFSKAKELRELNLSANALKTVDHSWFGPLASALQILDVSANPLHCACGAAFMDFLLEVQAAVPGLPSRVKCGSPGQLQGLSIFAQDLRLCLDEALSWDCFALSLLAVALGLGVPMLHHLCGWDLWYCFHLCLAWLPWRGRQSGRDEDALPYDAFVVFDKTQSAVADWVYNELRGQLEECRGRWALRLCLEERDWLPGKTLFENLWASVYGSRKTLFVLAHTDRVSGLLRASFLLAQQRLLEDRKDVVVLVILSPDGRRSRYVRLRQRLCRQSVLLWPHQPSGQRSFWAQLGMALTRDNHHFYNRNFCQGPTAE

[1] = test system: C57BL/6 mice, IMQ-induced psoriasis; assay: IMQ-induced psoriasis mouse model; assay type: in vivo
Protocol: The therapeutic efficacy of TAC5-a was evaluated in a psoriasis mouse model and a SLE mouse model. Psoriasis was induced in 6-7 week old C57BL/6 mice by topically applying 42 mg of IMQ cream (5%) to the shaved back skin of the mice for 6 consecutive days (FIG. 5A). TAC5-a was injected daily at doses of 50, 100 and 200 nmol/g and the effect thereof on severity was analyzed.
Histological analysis and immunochemical staining were performed on skin samples of mouse dorsal lesions. The sample was fixed with 4% paraformaldehyde solution, then embedded in paraffin and cut to 7 μm on a glass slide. The sections were stained with hematoxylin and eosin (H&E) and the thickness of the dermis and epidermis were measured. The thickness of skin was measured with a Leica DMi8 fluorescence microscope using a Leica LAS X Hardware Configurator (Leica Microsystems GmbH, Wetzlar, Germany). IMQ-mediated skin inflammation was evaluated by immunohistochemistry (IHC) using a primary antibody that recognizes CD68 (ab31630, 1:200 dilution) as a macrophage marker. […] The skin was stained with hematoxylin and eosin (H&E) in order to evaluate the thickness of the epidermis (yellow arrow) and dermis (green arrow) in IMQ-induced psoriasis mice and thereby to observe the histopathological changes of skin lesions in each group (FIG. 5G) Immunohistochemical analysis of skin lesions in each group was performed using a primary antibody that recognizes CD68.

T1 sequence (O00206 24-839): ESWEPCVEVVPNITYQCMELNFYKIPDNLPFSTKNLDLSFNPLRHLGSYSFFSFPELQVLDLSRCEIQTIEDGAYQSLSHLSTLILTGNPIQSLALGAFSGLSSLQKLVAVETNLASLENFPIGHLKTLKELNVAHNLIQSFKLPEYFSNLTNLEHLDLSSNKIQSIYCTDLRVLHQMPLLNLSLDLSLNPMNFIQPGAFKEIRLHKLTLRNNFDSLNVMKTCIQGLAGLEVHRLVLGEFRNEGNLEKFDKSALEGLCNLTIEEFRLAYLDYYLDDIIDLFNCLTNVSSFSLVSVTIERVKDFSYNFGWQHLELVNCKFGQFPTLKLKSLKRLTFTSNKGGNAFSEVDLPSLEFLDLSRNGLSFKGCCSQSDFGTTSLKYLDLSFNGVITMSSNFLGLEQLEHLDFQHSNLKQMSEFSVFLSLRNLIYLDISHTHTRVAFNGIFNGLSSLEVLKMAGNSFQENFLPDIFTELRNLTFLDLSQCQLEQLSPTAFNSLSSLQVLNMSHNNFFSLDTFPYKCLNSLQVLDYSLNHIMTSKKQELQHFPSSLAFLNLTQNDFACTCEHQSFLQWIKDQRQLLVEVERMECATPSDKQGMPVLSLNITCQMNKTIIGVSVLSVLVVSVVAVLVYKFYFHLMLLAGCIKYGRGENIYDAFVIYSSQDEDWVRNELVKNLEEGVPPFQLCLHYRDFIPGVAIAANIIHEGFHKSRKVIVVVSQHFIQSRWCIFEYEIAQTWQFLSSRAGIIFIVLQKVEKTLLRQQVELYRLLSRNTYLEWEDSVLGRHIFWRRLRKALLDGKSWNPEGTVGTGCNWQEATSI
T1 sequence (Q9Y6Y9 17-160 limits assumed): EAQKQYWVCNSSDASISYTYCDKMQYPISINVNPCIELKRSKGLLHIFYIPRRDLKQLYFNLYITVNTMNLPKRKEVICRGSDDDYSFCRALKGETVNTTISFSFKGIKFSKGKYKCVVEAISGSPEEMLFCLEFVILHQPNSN

TLR4 (LPS)-mediated TNF-α secretion (TLR4): did not block | TLR3-mediated TNF-α or IL-6 secretion (TLR3): significantly inhibited | TLR9-mediated TNF-α or IL-6 secretion (TLR9): significantly inhibited
SMILES: Nc1cccc(COc2cccnc2N)c1 [TAC5-a, 3-((3-aminobenzyl)oxy)pyridin-2-amine]
TLR7/8-mediated IL-6 expression (TLR7/8): inhibited | effect on back skin inflammation compared with methotrexate (MTX) ([1]; FIG. 5B): relatively weaker | spleen hypertrophy ([1]; FIG. 5D): adequately prevented | thickness of the epidermis and the dermis (H&E) ([1]; FIG. 5F): therapeutic effects similar to those of the treatment group were observed | expression of CD68 in skin lesions (immunohistochemistry) ([1]; FIG. 5H): effectively reduced | PASI score (psoriasis area and severity index) ([1]; fourth day of treatment, decreased from 8.0 or higher, FIG. 5C): less than 4.0 | degree of inflammation in the back skin ([1]; injected daily at 50, 100 and 200 nmol/g, FIG. 5B): reversal of the degree of inflammation was evident
